Drawing on US20240101576A1, “HETEROCYCLIC INHIBITORS OF EGFR AND/OR HER2, FOR USE IN THE TREATMENT OF CANCER” (Scorpion Therapeutics, Inc., priority 2020, published 2024), this text covers IC50 for 22 molecules.

What all share (type): cell-based
Test [1] addresses T1, EGFR exon 20 ASV Ins V769_D770 (Ba/F3 cells) (Homo sapiens, UniProt P00533, INS769ASV).
T1 construct: expressed in transfected cells; host or cells: Ba/F3 (murine pro-B cells), retroviral transduction, puromycin selection, IL3-independent pool
The test is described as follows: Inhibitor activity on EGFR-dependent cell growth (CellTiter-Glo, 72 h), Ba/F3 EGFR exon 20 ASV Ins. The conditions noted are these: read-out: BaF3 ASV IC50. Summed up:
(§1)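 IC50s derive from a sigmoidal dose–response fit of CellTiter-Glo signal. The signal was normalised between […]-treated cells and cell-free medium. Ba/F3 mutant-EGFR cells, seeded at 400–800/well depending on the line, had 72 h of exposure to a 10-point, 3-fold compound series.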

The target in test [2] is T2, EGFR exon 20 NPG Ins D770_N771 (Ba/F3 cells) (Homo sapiens, UniProt P00533, INS770NPG).
T2 construct: expressed in transfected cells; host or cells: Ba/F3 (murine pro-B cells), retroviral transduction, puromycin selection, IL3-independent pool
The test is described as follows: Inhibitor activity on EGFR-dependent cell growth (CellTiter-Glo, 72 h), Ba/F3 EGFR exon 20 NPG Ins. The conditions noted are these: read-out: BaF3 NPG IC50. Summed up: as §1
(In general: ATP-based viability assays read luminescence as a measure of living cells.)

Another test addresses T3, EGFR WT (Ba/F3 cells) (Homo sapiens, UniProt P00533).
T3 construct: expressed in transfected cells; host or cells: Ba/F3 (murine pro-B cells), retroviral transduction, puromycin selection, maintained with EGF
The test is described as follows: Inhibitor activity on EGFR-dependent cell growth (CellTiter-Glo, 72 h), Ba/F3 EGFR WT. The following applies: read-out: BaF3 WT IC50. Summed up: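 This growth assay used Ba/F3 cells that depend on wild-type EGFR and are kept in EGF without IL3. Compounds were made up as 10 mM DMSO stocks and diluted 3-fold over 10 points. 120 nL went onto 600 cells/well. After 72 hours, 40 μL CellTiter-Glo was added and luminescence read on EnVision after 30 min.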

Test [3] concerns the target T4, EGFR exon 20 FQEA Ins A763_V764 (Ba/F3 cells) (Homo sapiens, UniProt P00533, INS763FQEA).
T4 construct: expressed in transfected cells; host or cells: Ba/F3 (murine pro-B cells), retroviral transduction, puromycin selection, IL3-independent pool
The test is described as follows: Inhibitor activity on EGFR-dependent cell growth (CellTiter-Glo, 72 h), Ba/F3 EGFR exon 20 FQEA Ins. The conditions noted are these: read-out: BaF3 FQEA IC50. Summed up: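 Cell viability was measured by CellTiter-Glo after a three-day treatment. The IL3-free Ba/F3 lines carried L858R, L858R/C797S, exon 19 deletion or FQEA insertion EGFR and were seeded at 400, 600, 800 and 800 cells/well respectively.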

Test [4] deals with T5, EGFR exon 20 SVD Ins D770_N771 (Ba/F3 cells) (Homo sapiens, UniProt P00533, INS770SVD).
T5 construct: expressed in transfected cells; host or cells: Ba/F3 (murine pro-B cells), retroviral transduction, puromycin selection, IL3-independent pool
The test is described as follows: Inhibitor activity on EGFR-dependent cell growth (CellTiter-Glo, 72 h), Ba/F3 EGFR exon 20 SVD Ins. The following applies: read-out: BaF3 SVD IC50. Summed up:
as §1

By IC50 is commonly meant the concentration at which inhibition is half-maximal.

T3 sequence (P00533 25-1210): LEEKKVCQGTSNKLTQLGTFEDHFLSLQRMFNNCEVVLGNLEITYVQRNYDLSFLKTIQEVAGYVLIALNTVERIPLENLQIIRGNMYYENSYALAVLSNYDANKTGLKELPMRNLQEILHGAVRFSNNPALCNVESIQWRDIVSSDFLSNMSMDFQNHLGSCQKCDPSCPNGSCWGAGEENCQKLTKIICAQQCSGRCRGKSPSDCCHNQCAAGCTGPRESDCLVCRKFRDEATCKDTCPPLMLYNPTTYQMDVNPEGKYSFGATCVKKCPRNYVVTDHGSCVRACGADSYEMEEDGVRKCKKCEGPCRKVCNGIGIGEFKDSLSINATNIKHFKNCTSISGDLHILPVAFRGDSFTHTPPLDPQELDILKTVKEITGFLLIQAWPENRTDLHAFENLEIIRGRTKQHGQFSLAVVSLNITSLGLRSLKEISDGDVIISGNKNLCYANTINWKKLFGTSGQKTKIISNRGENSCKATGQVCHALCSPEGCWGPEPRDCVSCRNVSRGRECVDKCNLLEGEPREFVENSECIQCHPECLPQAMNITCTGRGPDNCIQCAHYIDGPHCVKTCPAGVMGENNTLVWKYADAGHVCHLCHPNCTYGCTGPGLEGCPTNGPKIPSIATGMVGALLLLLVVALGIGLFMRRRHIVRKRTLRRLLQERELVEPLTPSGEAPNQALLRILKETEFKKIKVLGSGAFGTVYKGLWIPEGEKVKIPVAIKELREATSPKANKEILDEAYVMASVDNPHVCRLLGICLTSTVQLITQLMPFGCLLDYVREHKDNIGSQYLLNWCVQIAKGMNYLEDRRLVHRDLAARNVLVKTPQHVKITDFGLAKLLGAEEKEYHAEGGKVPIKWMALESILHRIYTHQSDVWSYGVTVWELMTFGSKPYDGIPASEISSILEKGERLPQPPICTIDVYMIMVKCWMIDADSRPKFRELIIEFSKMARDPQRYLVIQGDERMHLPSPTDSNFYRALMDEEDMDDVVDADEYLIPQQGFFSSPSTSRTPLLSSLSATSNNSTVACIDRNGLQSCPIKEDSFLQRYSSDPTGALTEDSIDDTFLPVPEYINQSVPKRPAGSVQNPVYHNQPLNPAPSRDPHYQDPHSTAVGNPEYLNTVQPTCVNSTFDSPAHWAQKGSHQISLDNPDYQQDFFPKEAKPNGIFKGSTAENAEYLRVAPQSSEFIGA
T2 sequence (P00533 with tags, fused parts or gaps INS770NPG): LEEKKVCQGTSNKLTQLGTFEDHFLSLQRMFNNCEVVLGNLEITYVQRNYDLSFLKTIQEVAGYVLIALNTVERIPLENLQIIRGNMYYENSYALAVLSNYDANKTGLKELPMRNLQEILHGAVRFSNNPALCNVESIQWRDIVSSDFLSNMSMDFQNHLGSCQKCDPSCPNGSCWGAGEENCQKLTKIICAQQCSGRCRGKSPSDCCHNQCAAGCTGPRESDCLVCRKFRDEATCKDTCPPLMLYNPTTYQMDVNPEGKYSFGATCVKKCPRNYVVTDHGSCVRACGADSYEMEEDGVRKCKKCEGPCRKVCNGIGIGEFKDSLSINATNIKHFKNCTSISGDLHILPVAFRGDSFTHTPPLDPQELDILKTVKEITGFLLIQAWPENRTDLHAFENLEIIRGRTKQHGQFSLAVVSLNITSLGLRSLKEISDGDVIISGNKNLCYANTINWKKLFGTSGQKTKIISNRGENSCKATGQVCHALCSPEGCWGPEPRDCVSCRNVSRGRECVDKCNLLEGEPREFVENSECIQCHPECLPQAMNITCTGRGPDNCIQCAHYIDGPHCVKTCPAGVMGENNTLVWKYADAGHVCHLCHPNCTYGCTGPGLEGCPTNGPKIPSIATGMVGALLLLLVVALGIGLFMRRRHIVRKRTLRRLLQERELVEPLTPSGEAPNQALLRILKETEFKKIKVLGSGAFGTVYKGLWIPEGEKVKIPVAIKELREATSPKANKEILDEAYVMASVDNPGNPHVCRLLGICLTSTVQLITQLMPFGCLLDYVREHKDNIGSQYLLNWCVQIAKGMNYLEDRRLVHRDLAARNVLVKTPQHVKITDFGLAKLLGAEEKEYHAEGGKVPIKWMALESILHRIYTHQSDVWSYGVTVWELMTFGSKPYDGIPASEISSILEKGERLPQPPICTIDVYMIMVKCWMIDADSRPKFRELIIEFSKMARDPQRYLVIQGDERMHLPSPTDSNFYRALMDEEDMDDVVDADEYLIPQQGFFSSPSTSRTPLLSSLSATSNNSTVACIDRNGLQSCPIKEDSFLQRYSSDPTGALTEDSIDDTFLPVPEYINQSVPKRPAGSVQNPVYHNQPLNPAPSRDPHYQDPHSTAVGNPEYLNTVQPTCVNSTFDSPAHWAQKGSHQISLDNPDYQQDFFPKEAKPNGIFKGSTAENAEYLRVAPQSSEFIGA
T4 sequence (P00533 with tags, fused parts or gaps INS763FQEA): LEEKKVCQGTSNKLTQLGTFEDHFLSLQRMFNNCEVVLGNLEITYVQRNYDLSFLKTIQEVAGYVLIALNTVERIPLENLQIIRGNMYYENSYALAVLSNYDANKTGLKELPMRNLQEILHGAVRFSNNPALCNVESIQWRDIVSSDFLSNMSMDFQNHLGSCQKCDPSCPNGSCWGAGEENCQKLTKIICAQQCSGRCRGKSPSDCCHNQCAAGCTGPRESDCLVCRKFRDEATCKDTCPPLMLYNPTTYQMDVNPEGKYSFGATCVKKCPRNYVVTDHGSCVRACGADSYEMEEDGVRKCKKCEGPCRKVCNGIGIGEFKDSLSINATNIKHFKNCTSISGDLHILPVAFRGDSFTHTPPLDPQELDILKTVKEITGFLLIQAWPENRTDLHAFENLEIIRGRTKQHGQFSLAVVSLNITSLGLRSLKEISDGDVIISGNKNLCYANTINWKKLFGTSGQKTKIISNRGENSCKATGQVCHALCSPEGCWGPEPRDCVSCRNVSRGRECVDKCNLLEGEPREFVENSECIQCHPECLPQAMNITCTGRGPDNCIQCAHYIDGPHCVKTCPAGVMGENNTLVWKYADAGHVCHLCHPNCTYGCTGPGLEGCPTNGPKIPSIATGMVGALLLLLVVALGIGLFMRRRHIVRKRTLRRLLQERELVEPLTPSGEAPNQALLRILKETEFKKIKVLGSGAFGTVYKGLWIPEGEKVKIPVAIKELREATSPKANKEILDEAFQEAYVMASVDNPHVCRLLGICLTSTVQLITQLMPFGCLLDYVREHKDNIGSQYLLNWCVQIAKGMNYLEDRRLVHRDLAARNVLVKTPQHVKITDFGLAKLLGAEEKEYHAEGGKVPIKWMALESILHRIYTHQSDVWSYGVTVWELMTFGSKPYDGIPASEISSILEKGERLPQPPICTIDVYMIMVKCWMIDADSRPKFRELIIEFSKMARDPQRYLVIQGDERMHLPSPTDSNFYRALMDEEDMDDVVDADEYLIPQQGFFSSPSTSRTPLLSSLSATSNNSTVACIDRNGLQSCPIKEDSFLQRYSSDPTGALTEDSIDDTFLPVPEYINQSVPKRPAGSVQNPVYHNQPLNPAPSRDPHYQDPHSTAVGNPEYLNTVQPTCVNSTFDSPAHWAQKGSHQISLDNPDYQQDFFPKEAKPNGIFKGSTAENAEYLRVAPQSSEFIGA
T5 sequence (P00533 with tags, fused parts or gaps INS770SVD): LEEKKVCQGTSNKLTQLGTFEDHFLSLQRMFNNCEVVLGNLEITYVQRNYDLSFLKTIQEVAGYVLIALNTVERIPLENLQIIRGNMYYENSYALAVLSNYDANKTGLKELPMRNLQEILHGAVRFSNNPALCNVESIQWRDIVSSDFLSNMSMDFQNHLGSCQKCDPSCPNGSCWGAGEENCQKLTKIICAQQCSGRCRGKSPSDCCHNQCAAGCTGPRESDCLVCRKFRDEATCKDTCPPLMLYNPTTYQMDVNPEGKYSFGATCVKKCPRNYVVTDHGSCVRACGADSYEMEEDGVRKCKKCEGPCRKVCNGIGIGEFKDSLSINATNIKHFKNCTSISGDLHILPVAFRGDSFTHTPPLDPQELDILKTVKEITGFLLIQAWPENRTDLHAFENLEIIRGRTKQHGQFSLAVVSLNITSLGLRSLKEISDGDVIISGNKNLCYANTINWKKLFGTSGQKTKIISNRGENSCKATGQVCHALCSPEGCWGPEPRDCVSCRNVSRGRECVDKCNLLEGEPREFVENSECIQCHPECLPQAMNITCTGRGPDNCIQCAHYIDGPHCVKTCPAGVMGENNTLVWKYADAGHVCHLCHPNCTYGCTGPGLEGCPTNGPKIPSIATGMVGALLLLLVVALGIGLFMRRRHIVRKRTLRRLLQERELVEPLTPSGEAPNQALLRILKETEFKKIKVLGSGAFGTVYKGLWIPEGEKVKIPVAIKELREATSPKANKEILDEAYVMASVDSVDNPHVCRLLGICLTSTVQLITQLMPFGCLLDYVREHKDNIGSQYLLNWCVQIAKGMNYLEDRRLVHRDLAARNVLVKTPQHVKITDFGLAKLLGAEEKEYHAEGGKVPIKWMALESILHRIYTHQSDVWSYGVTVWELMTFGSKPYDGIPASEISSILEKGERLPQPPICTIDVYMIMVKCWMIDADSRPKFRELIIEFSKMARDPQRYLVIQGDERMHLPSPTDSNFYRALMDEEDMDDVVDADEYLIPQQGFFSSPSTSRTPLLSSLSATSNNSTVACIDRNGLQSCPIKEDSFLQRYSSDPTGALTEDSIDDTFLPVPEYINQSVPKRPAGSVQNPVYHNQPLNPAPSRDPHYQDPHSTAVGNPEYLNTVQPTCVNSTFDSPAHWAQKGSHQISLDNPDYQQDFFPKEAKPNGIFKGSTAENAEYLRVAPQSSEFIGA

In the case of `COCC[C@H]1CNC(=O)c2c1[nH]c(-c1ccncc1F)c2Nc1cccc(F)c1OC` [421a], the IC50 in test [1] is 0.1 to 1 µM; in test [2], 0.1 to 1 µM; at EGFR WT (Ba/F3 cells) it was over 1 µM; in test [3], 0.1 to 1 µM; in test [4], 0.1 to 1 µM.

Turning to `COc1c(Cl)cccc1Nc1c(-c2ccncc2F)[nH]c2c1C(=O)NC[C@@H]2CC1COC1` [468a], the IC50 was over 1 µM in test [1]; 0.1 to 1 µM in test [2]; over 1 µM at EGFR WT (Ba/F3 cells); over 1 µM in test [3]; over 1 µM in test [4].

As to `COc1c(F)cccc1Nc1c(-c2ccncc2F)[nH]c2c1C(=O)NC[C@H]2CC1COC1` [469a], the IC50 (in test [1]; in test [2]; at EGFR WT (Ba/F3 cells); in test [3]; in test [4]) was over 1 µM in each case.

Take `COc1c(F)cccc1Nc1c(-c2ccncc2F)[nH]c2c1C(=O)NC[C@@H]2CC1COC1` [469b]: the IC50 (in test [1]; in test [2]; at EGFR WT (Ba/F3 cells); in test [3]; in test [4]) was over 1 µM each time.

For the molecule `COc1c(F)cccc1Nc1c(-c2ccncc2F)[nH]c2c1C(=O)NC[C@@H]2C[C@H]1CCO1` [Compound 422c, (7S)-3-[(3-fluoro-2-methoxyphenyl)amino]-2-(3-fluoropyridin-4-yl)-7-[(2S)-oxetan-2-ylmethyl]-1H,5H,6H,7H-pyrrolo[3,2-c]pyridin-4-one], the IC50 in test [1] is 0.1 to 1 µM; in test [2] it was 0.1 to 1 µM; on EGFR WT (Ba/F3 cells), over 1 µM; in test [3] it was 0.1 to 1 µM; in test [4], 0.1 to 1 µM.

Consider `COc1c(F)cccc1Nc1c(-c2ccncc2F)[nH]c2c1C(=O)NC[C@H]2C[C@H]1CCO1` [Compound 422d, (7R)-3-[(3-fluoro-2-methoxyphenyl)amino]-2-(3-fluoropyridin-4-yl)-7-[(2S)-oxetan-2-ylmethyl]-1H,5H,6H,7H-pyrrolo[3,2-c]pyridin-4-one], for which the IC50 was under 0.1 µM in test [1]; under 0.1 µM in test [2]; 0.1 to 1 µM on EGFR WT (Ba/F3 cells); 0.1 to 1 µM in test [3]; under 0.1 µM in test [4].

As for `COc1c(Cl)cccc1Nc1c(-c2ccncc2F)[nH]c2c1C(=O)NC[C@@H]2CC(=O)N(C)C` [Compound 488], the IC50 in test [1] was under 0.1 µM; in test [2], under 0.1 µM; at EGFR WT (Ba/F3 cells) it was over 1 µM; in test [3] it was 0.1 to 1 µM; in test [4] it was under 0.1 µM.

Regarding `COc1c(F)cccc1Nc1c(-c2ccncc2F)[nH]c2c1C(=O)NC[C@@H]2C[C@@H]1COCCO1` [Compound 526, (7S)-7-[(2R)-1,4-dioxan-2-ylmethyl]-3-[(3-fluoro-2-methoxyphenyl)amino]-2-(3-fluoropyridin-4-yl)-1H,5H,6H,7H-pyrrolo[3,2-c]pyridin-4-one], the concentration for half-maximal inhibition (IC50) is 0.1 to 1 µM in test [1]; 0.1 to 1 µM in test [2]; over 1 µM at EGFR WT (Ba/F3 cells); 0.1 to 1 µM in test [3]; 0.1 to 1 µM in test [4].

In the case of `COc1c(Cl)cccc1Nc1c(-c2ccnc3cccnc23)[nH]c2c1C(=O)NCC2` [Compound 683, 3-[(3-chloro-2-methoxyphenyl)amino]-2-(1,5-naphthyridin-4-yl)-1H,5H,6H,7H-pyrrolo[3,2-c]pyridin-4-one], the IC50 was under 0.1 µM in test [1]; under 0.1 µM in test [2]; 0.1 to 1 µM at EGFR WT (Ba/F3 cells); under 0.1 µM in test [3]; under 0.1 µM in test [4].

For `COc1c(Cl)cc(F)cc1Nc1c(-c2ccnc(N)n2)[nH]c2c1C(=O)NCC2` [Compound 714, 2-(2-aminopyrimidin-4-yl)-3-[(3-chloro-5-fluoro-2-methoxyphenyl)amino]-1H,5H,6H,7H-pyrrolo[3,2-c]pyridin-4-one; trifluoroacetic acid], the IC50 was 0.1 to 1 µM in test [1]; under 0.1 µM in test [2]; over 1 µM on EGFR WT (Ba/F3 cells); 0.1 to 1 µM in test [3]; 0.1 to 1 µM in test [4].

For the molecule `CSc1c(F)cccc1Nc1c(-c2ccnc(N)n2)[nH]c2c1C(=O)NCC2` [Compound 716, 2-(2-aminopyrimidin-4-yl)-3-[[3-fluoro-2-(methylsulfanyl)phenyl]amino]-1H,5H,6H,7H-pyrrolo[3,2-c]pyridin-4-one; trifluoroacetic acid], the 50% inhibitory concentration (IC50) in test [1] is 0.1 to 1 µM; in test [2] it was 0.1 to 1 µM; on EGFR WT (Ba/F3 cells), over 1 µM; in test [3] it was 0.1 to 1 µM; in test [4], 0.1 to 1 µM.

Take `COCC[C@H]1CNC(=O)c2c1[nH]c(-c1ccnc(N)n1)c2Nc1cccc(Cl)c1OC` [Compound 727, (7S)-2-(2-aminopyrimidin-4-yl)-3-[(3-chloro-2-methoxyphenyl)amino]-7-(2-methoxyethyl)-1H,5H,6H,7H-pyrrolo[3,2-c]pyridin-4-one]: the IC50 is under 0.1 µM in test [1]; under 0.1 µM in test [2]; 0.1 to 1 µM at EGFR WT (Ba/F3 cells); under 0.1 µM in test [3]; under 0.1 µM in test [4].

`COCC[C@@H]1CNC(=O)c2c1[nH]c(-c1ccncc1F)c2Nc1cccc(Cl)c1OC` [Compound 746]: the results for the 50% inhibitory concentration (IC50) (in test [2]; at EGFR WT (Ba/F3 cells); in test [3]) were under 0.1 µM, 0.1 to 1 µM and under 0.1 µM, respectively.

As to `COc1c(Cl)cccc1Nc1c(-c2ccnc(-c3cn(C)nn3)n2)[nH]c2c1C(=O)NCC2` [compound 545, 3-[(3-chloro-2-methoxyphenyl)amino]-2-[2-(1-methyl-1,2,3-triazol-4-yl)pyrimidin-4-yl]-1H,5H,6H,7H-pyrrolo[3,2-c]pyridin-4-one], the IC50 in test [1] was 0.1 to 1 µM; in test [2] it was under 0.1 µM; at EGFR WT (Ba/F3 cells), over 1 µM; in test [4], 0.1 to 1 µM.

For the molecule `COc1c(Cl)cccc1Nc1c(-c2ccnc(-c3ccncn3)n2)[nH]c2c1C(=O)NCC2` [compound 546, 2-{[2,4′-bipyrimidin]-4-yl}-3-[(3-chloro-2-methoxyphenyl)amino]-1H,5H,6H,7H-pyrrolo[3,2-c]pyridin-4-one], the IC50 in test [1] is over 1 µM; in test [2] it was 0.1 to 1 µM; at EGFR WT (Ba/F3 cells), over 1 µM; in test [4], 0.1 to 1 µM.

`COc1c(F)cccc1Nc1c(-c2ccnc(Nc3cnnn3C)n2)[nH]c2c1C(=O)NCC2` [compound 591, 3-[(3-fluoro-2-methoxyphenyl)amino]-2-{2-[(3-methyl-1,2,3-triazol-4-yl)amino]pyrimidin-4-yl}-1H,5H,6H,7H-pyrrolo[3,2-c]pyridin-4-one]: the IC50 in test [1] was under 0.1 µM; in test [2] it was under 0.1 µM; on EGFR WT (Ba/F3 cells), 0.1 to 1 µM; in test [4], under 0.1 µM.

For `COc1c(Cl)cccc1Nc1c(-c2ccnc(Nc3nnn(C)c3C)n2)[nH]c2c1C(=O)NCC2` [compound 607, 3-[(3-chloro-2-methoxyphenyl)amino]-2-{2-[(1,5-dimethyl-1,2,3-triazol-4-yl)amino]pyrimidin-4-yl}-1H,5H,6H,7H-pyrrolo[3,2-c]pyridin-4-one], the IC50 (in test [1]; in test [2]; at EGFR WT (Ba/F3 cells); in test [4]) was over 1 µM each time.

Take `COc1c(F)cccc1Nc1c(-c2ccnc(Nc3nnn(C)c3C)n2)[nH]c2c1C(=O)NCC2` [compound 608, 2-{2-[(1,5-dimethyl-1,2,3-triazol-4-yl)amino]pyrimidin-4-yl}-3-[(3-fluoro-2-methoxyphenyl)amino]-1H,5H,6H,7H-pyrrolo[3,2-c]pyridin-4-one]: the IC50 (in test [1]; in test [2]; at EGFR WT (Ba/F3 cells); in test [4]) was over 1 µM in each case.

In the case of `C=CC(=O)N1CCC2(CC1)CNC(=O)c1c2[nH]c(-c2ccnc(C)n2)c1Nc1cc(F)cc(Cl)c1OC` [compound 642], the IC50 in test [1] is under 0.1 µM; in test [2], under 0.1 µM; at EGFR WT (Ba/F3 cells), 0.1 to 1 µM; in test [4] it was under 0.1 µM.

Regarding `C=CC(=O)NCC[C@H]1CNC(=O)c2c1[nH]c(-c1ccnc(C)n1)c2Nc1cccc(Cl)c1OC` [compound 653], the IC50 in test [1] was 0.1 to 1 µM; in test [2], 0.1 to 1 µM; on EGFR WT (Ba/F3 cells) it was over 1 µM; in test [4], 0.1 to 1 µM.

Turning to `C=CC(=O)NCC[C@@H]1CNC(=O)c2c1[nH]c(-c1ccnc(C)n1)c2Nc1cccc(Cl)c1OC` [compound 654], the IC50 in test [1] was under 0.1 µM; in test [2], under 0.1 µM; at EGFR WT (Ba/F3 cells) it was 0.1 to 1 µM; in test [4] it was under 0.1 µM.

With `COc1c(Cl)cccc1Nc1c(-c2ccnc(C)n2)[nH]c2c(C[C@H]3COCCO3)c[nH]c(=O)c12` [compound 659], the IC50 in test [1] was under 0.1 µM; in test [2] it was under 0.1 µM; at EGFR WT (Ba/F3 cells), over 1 µM; in test [4] it was under 0.1 µM.
